Measurements from patent publication US11286247B2, “Acryloyl-containing nuclear transport regulators and uses thereof” (WIGEN BIOMEDICINE TECHNOLOGY (SHANGHAI) CO., LTD., priority 2019, dated 2022).

Experiments:
[1] = In vivo pharmacokinetic analysis; conditions: ICR, mouse; mice, 5 mg/kg, oral gavage in 0.5% CMC, plasma
Description: A group of 9 ICR mice received 5 mg/kg of compound in 0.5% CMC by oral gavage. Blood was taken before treatment and at 5 min, 30 min, 1, 2, 4, 8, 12 and 24 h after treatment. 80 μL of whole blood was sampled (n=3 at each time point) via retro-orbital bleeds or cardiac puncture. The blood sample was collected into EDTA tubes and plasma were obtained by centrifugation at 1500-1600 rpm for 10 min at 4° C. After centrifugation, plasma sample was transferred to a new tube and stored at −60 to −90° C. for future analysis. Plasma concentration of (compounds was quantified by a method based on liquid chromatography coupled to tandem mass-spectrometric detections (LC/MS/MS). Noncompartmental pharmacokinetics parameters were calculated.

[2] = system: MDA-MB-231 cells (breast cancer cells); experiment: Cancer cell proliferation assay, MDA-MB-231; format: cell-based; conditions: Homo sapiens, MDA-MB-231, 72 h; three days incubation, absorbance 570 nm; read-out: IC50 (μM) MDA-MB-231
Description: (§1) BxPC-3 cells (pancreatic cancer) and MDA-MB-231 cells (breast cancer cells) were harvested from exponential phase cultures and seeded in 96-well plates at a cell density of 2×10^4 per well. After overnight attachment, compounds including positive controls were applied to cells at five concentrations and incubated for three days. During the last four hours of incubation, 20 μL of 5 mg/mL […] was added followed by the further addition of 100 μL DMSO. The plates were subsequently shook for 10 minutes to dissolve insoluble purple formazan. Absorbance (A) at a wavelength of 570 nm was quantified. Percentage of inhibition was used for the calculation of IC50 based on the bliss method.

[3] = system: BxPC-3 cells (pancreatic cancer); experiment: Cancer cell proliferation assay, BxPC-3; format: cell-based; conditions: Homo sapiens, BXPC-3, 72 h; three days incubation, absorbance 570 nm; read-out: IC50 (μM) BxPC-3
Description: as §1

[4] = target: T1, CRM1 (Homo sapiens, UniProt O14980); experiment: Rev-GFP nuclear export assay; format: cell-based; conditions: U2OS cells expressing Rev-GFP, 1 hour incubation, nuclear retention of Rev-GFP
T1 construct: The nuclear localization of Rev protein depends on CRM1; endogenous in cells; host or cells: U2OS cells stably or transiently expressing Rev-GFP (reporter cargo)
Description: The Rev protein from HIV contains nuclear export sequence (NES) at its C terminus and nuclear localization sequence (NLS) at its N-terminus. The nuclear localization of Rev protein depends on CRM1. U2OS cells expressing Rev protein fused with GFP (Rev-GFP) were plated in black 384 plates with clear bottom one day prior to treatment. Compounds were serially diluted 2-fold from 40 μM with DMEM in 384 plates, and then incubated with U2OS cells for an hour. Cells were fixed with 3.7% formaldehyde afterwards and nuclei were stained with Hoechst33258. The nuclear retention of Rev-GFP was examined, and IC50 was calculated.

T1 sequence (O14980 whole entry): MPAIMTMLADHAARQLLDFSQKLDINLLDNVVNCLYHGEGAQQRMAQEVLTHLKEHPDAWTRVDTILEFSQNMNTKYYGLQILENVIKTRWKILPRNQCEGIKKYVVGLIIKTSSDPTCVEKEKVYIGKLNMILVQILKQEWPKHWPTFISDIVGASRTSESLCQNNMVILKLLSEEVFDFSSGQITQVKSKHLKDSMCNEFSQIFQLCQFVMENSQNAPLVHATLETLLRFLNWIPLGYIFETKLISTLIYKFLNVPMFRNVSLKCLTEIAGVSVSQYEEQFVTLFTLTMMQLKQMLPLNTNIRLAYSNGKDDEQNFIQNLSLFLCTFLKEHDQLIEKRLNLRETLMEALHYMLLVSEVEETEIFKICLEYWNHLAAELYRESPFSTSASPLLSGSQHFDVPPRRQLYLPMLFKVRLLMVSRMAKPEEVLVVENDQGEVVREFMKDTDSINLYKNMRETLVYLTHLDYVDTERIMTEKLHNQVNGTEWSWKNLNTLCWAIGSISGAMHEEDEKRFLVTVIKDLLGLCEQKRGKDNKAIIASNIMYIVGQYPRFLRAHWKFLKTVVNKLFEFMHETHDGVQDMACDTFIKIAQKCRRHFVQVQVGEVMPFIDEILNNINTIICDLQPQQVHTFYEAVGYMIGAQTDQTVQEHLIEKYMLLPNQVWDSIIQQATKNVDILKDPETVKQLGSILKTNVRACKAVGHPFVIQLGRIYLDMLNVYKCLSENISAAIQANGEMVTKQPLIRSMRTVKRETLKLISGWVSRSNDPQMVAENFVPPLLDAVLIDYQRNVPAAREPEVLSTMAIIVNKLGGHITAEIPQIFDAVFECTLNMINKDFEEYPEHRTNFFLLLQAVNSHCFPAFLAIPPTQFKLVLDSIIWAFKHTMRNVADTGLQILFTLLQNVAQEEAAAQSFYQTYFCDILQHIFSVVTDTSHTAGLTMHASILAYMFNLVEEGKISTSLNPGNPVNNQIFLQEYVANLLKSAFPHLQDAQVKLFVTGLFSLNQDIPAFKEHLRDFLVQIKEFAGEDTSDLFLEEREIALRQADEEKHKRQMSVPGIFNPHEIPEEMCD

AUC(0-t) [1] | Cmax [1] | MRT [1] | Tmax [1] | half-life [1] | IC50 [2] | IC50 [3] | IC50 [4] | Structure (SMILES)
3690 ng·h/mL | 674 ng/mL | 4.34 h | 1 h | 4.53 h | 0.955 µM | 0.202 µM | < 1000 nM | CC1=C(C)C(=O)N(NC(=O)/C=C\n2cnc(-c3cc(C(F)(F)F)cc(C(F)(F)F)c3)n2)C1 [Compound 5, (Z)-3-(3-(3,5-bis(trifluoromethyl)phenyl)-1H-1,2,4-triazol-1-yl)-N-(3,4-dimethyl-2-oxo-2,5-dihydro-1H-pyrrol-1-yl)acrylamide]
 |  |  |  |  | 0.487 µM | 0.471 µM | < 1000 nM | CCC1=C(C)CN(NC(=O)/C=C\n2cnc(-c3cc(C(F)(F)F)cc(C(F)(F)F)c3)n2)C1=O [Compound 6, (Z)-3-(3-(3,5-bis(trifluoromethyl)phenyl)-1H-1,2,4-triazol-1-yl)-N-(3-ethyl-4-methyl-2-oxo-2,5-dihydro-1H-pyrrol-1-yl)acrylamide]
 |  |  |  |  | 0.504 µM | 0.334 µM | < 1000 nM | CC1CCN(NC(=O)/C=C\n2cnc(-c3cc(C(F)(F)F)cc(C(F)(F)F)c3)n2)C1=O (centres unmarked) [Compound 9, (Z)-3-(3-(3,5-bis(trifluoromethyl)phenyl)-1H-1,2,4-triazol-1-yl)-N-(3-methyl-2-oxopyrrolidin-1-yl)acrylamide]
 |  |  |  |  | 0.519 µM | 0.527 µM | 1000 to 10000 nM | O=C(/C=C\n1cnc(-c2cc(C(F)(F)F)cc(C(F)(F)F)c2)n1)NN1CC[C@H](O)C1=O [Compound 10, (S,Z)-3-(3-(3,5-bis(trifluoromethyl)phenyl)-1H-1,2,4-triazol-1-yl)-N-(3-hydroxy-2-oxopyrrolidin-1-yl)acrylamide]
 |  |  |  |  | 1.23 µM | 0.352 µM |  | O=C(/C=C\n1cnc(-c2cc(C(F)(F)F)cc(C(F)(F)F)c2)n1)NN1CC(O)CC1=O (centres unmarked) [Compound 15, (Z)-3-(3-(3,5-bis(trifluoromethyl)phenyl)-1H-1,2,4-triazol-1-yl)-N-(4-hydroxy-2-oxopyrrolidin-1-yl)acrylamide]
 |  |  |  |  | 0.266 µM | 0.145 µM | < 1000 nM | CCOC1=CC(=O)N(NC(=O)/C=C\n2cnc(-c3cc(C(F)(F)F)cc(C(F)(F)F)c3)n2)C1 [Compound 80, (Z)-3-(3-(3,5-bis(trifluoromethyl)phenyl)-1H-1,2,4-triazol-1-yl)-N-(4-ethoxy-2-oxo-2,5-dihydro-1H-pyrrol-1-yl)acrylamide]
 |  |  |  |  | 0.41 µM | 0.259 µM | < 1000 nM | O=C(/C=C\n1cnc(-c2cc(C(F)(F)F)cc(C(F)(F)F)c2)n1)NN1CCC=CC1=O [Compound 88, (Z)-3-(3-(3,5-bis(trifluoromethyl)phenyl)-1H-1,2,4-triazol-1-yl)-N-(6-oxo-3,6-dihydropyridin-1(2H)-yl)acrylamide]
 |  |  |  |  | 0.277 µM | 0.184 µM | < 1000 nM | CC1=CC(=O)N(NC(=O)/C=C\n2cnc(-c3cc(C(F)(F)F)cc(C(F)(F)F)c3)n2)CC1 [Compound 89, (Z)-3-(3-(3,5-bis(trifluoromethyl)phenyl)-1H-1,2,4-triazol-1-yl)-N-(4-methyl-6-oxo-3,6-dihydropyridin-1(2H)-yl)acrylamide]

Continued, compound first:

Structure (SMILES) | AUC(0-t) [1] | Cmax [1] | MRT [1] | Tmax [1] | half-life [1] | IC50 [2] | IC50 [3] | IC50 [4]
O=C(/C=C\n1cnc(-c2cc(C(F)(F)F)cc(C(F)(F)F)c2)n1)NN1CCCCC1=O [Compound 3, (Z)-3-(3-(3,5-bis(trifluoromethyl)phenyl)-1H-1,2,4-triazol-1-yl)-N-(2-oxopiperidin-1-yl)acrylamide] | 5810 ng·h/mL | 499 ng/mL | 7.86 h | 1 h | 3.31 h |  |  | 
O=C(/C=C\n1cnc(-c2cc(C(F)(F)F)cc(C(F)(F)F)c2)n1)NN1CCCCCC1=O [Compound 4, (Z)-3-(3-(3,5-bis(trifluoromethyl)phenyl)-1H-1,2,4-triazol-1-yl)-N-(2-oxoazepan-1-yl)acrylamide] |  |  |  |  |  | 0.034 µM | 0.238 µM | < 1000 nM
O=C(/C=C\n1cnc(-c2cc(C(F)(F)F)cc(C(F)(F)F)c2)n1)NN1CCC2(CC2)C1=O [Compound 18, (Z)-3-(3-(3,5-bis(trifluoromethyl)phenyl)-1H-1,2,4-triazol-1-yl)-N-(4-oxo-5-azaspiro[2.4]heptan-5-yl)acrylamide] | 3100 ng·h/mL | 320 ng/mL | 6.17 h | 0.5 h | 3.12 h |  |  | 
O=C(/C=C\n1cnc(-c2cc(C(F)(F)F)cc(C(F)(F)F)c2)n1)NN1CC2CCCCC2C1=O (centres unmarked) [Compound 28, (Z)-3-(3-(3,5-bis(trifluoromethyl)phenyl)-1H-1,2,4-triazol-1-yl)-N-(1-oxooctahydro-2H-isoindol-2-yl)acrylamide] |  |  |  |  |  | 0.24 µM | 0.769 µM | 1000 to 10000 nM
O=C(/C=C\n1cnc(-c2cc(C(F)(F)F)cc(C(F)(F)F)c2)n1)NN1C(=O)[C@H]2C=C[C@@H]1C2 [Compound 30, (Z)-3-(3-(3,5-bis(trifluoromethyl)phenyl)-1H-1,2,4-triazol-1-yl)-N-((1S,4R)-3-oxo-2-azabicyclo[2.2.1]hept-5-en-2-yl)acrylamide] |  |  |  |  |  | 0.515 µM | 0.392 µM | < 1000 nM
O=C(/C=C\n1cnc(-c2cc(C(F)(F)F)cc(C(F)(F)F)c2)n1)NN1C(=O)[C@H]2CC[C@@H]1C2 [Compound 32, (Z)-3-(3-(3,5-bis(trifluoromethyl)phenyl)-1H-1,2,4-triazol-1-yl)-N-((1R,4S)-3-oxo-2-azabicyclo[2.2.1]heptan-2-yl)acrylamide] |  |  |  |  |  | 0.277 µM | 0.134 µM | < 1000 nM
O=C(/C=C\n1cnc(-c2cc(C(F)(F)F)cc(C(F)(F)F)c2)n1)Nn1ccccc1=O [Compound 56, (Z)-3-(3-(3,5-bis(trifluoromethyl)phenyl)-1H-1,2,4-triazol-1-yl)-N-(2-oxopyridin-1(2H)-yl)acrylamide] |  |  |  |  |  | 0.382 µM | 0.449 µM | < 1000 nM
CC(C)N1C(=O)CCN1C(=O)/C=C\n1cnc(-c2cc(C(F)(F)F)cc(C(F)(F)F)c2)n1 [Compound 65, (Z)-1-(3-(3-(3,5-bis(trifluoromethyl)phenyl)-1H-1,2,4-triazol-1-yl)acryloyl)-2-isopropylpyrazolidin-3-one] |  |  |  |  |  | 0.055 µM | 0.168 µM | < 1000 nM
O=C(/C=C\n1cnc(-c2cc(C(F)(F)F)cc(C(F)(F)F)c2)n1)N1CCC(=O)N1Cc1ccccc1 [Compound 67, (Z)-2-benzyl-1-(3-(3-(3,5-bis(trifluoromethyl)phenyl)-1H-1,2,4-triazol-1-yl)acryloyl)pyrazolidin-3-one] |  |  |  |  |  | 0.965 µM | 0.483 µM | < 1000 nM
[2H]C([2H])([2H])OC1=CC(=O)N(NC(=O)/C=C\n2cnc(-c3cc(C(F)(F)F)cc(C(F)(F)F)c3)n2)C1 [Compound 82, (Z)-3-(3-(3,5-bis(trifluoromethyl)phenyl)-1H-1,2,4-triazol-1-yl)-N-(4-(methoxy-d3)-2-oxo-2,5-dihydro-1H-pyrrol-1-yl)acrylamide] |  |  |  |  |  | 0.102 µM | 0.016 µM | < 1000 nM
O=C(/C=C\n1cnc(-c2cc(C(F)(F)F)cc(C(F)(F)F)c2)n1)NN1CC(OCC(F)(F)F)=CC1=O [Compound 83, (Z)-3-(3-(3,5-bis(trifluoromethyl)phenyl)-1H-1,2,4-triazol-1-yl)-N-(2-oxo-4-(2,2,2-trifluoroethoxy)-2,5-dihydro-1H-pyrrol-1-yl)acrylamide] |  |  |  |  |  | 0.214 µM | 0.344 µM | < 1000 nM
O=C(/C=C\n1cnc(-c2cc(C(F)(F)F)cc(C(F)(F)F)c2)n1)N1CCCN1c1cnccn1 [Compound 96, (Z)-3-(3-(3,5-bis(trifluoromethyl)phenyl)-1H-1,2,4-triazol-1-yl)-1-(2-(pyrazin-2-yl)pyrazolidin-1-yl)prop-2-en-1-one] |  |  |  |  |  | 0.675 µM | 0.334 µM | < 1000 nM
O=C(/C=C\n1cnc(-c2cc(C(F)(F)F)cc(C(F)(F)F)c2)n1)N1CCCN1C(=O)C1CC1 [Compound 98, (Z)-3-(3-(3,5-bis(trifluoromethyl)phenyl)-1H-1,2,4-triazol-1-yl)-1-(2-(cyclopropanecarbonyl)pyrazolidin-1-yl)prop-2-en-1-one] |  |  |  |  |  | 0.487 µM | 0.302 µM | < 1000 nM
